Laboratory results as given in patent US20030096957A1, “AFX (zeta) transcription factor splice form” (priority 2001, published 2003).

Assays:
Assay type in all cases: cell-based, human
[1] = tested on: AFXζ-induced PEPCK IRS-SEAP activity; experiment: PEPCK IRS-SEAP reporter assay in HepG2 cells transfected with AFXζ
Description: (§1) FIG. 4. Effect of insulin on the transcriptional activity of AFXζ. HepG2 cells were transiently transfected with pcDNA6/His-AFXζ and PEPCK p-SEAP (A) or PEPCK IRS-SEAP (B). Twenty-four hours after transfection, cells were treated with insulin at the indicated concentration in fresh media and incubated for another 15-18 hours. SEAP and β-galactosidase activities were measured. The relative activation levels were standardized by comparison to the reporter activity from transfected cells without insulin treatment (A) or untreated cells transfected with the reporter alone (B). All values represent the means±S.D. of 3 independent experiments.
(§2) FIG. 6. Effect of AICAR on the transcriptional activity of AFXζ. A. HepG2 cells were transiently transfected with AFXζ and PEPCK p-SEAP (A) or PEPCK IRS-SEAP (B). Twenty-four hours after transfection, cells were treated with AICAR at indicated concentration in fresh media and incubated for another 15-18 hours. SEAP and β-galactosidase activities were measured. The relative activation levels were standardized by comparison to the activity from cells without AICAR treatment (A) or untreated cells transfected with the reporter alone (B). All values represent the means±S.D. of 3 independent experiments.
(§3) Double-stranded DNA fragments containing each of the IRS elements from the promoters of PEPCK, IGFBP- 1 and G6Pase were cloned into the Nhe I/Bgl II site of pSEAP2-promoter vector (Clontech). Dissected fragments of the PEPCK and IGFBP-1 IRS elements, referred as PEPCK-a, PEPCK-b and IGFBP-1a, IGFBP-1b, respectively, were cloned into the same site of pSEAP2-promoter. […]
The human hepatoma cell line HepG2 was cultured in Dulbecco's Modified Eagle's Medium (DMEM) with 10% Fetal Bovine Serum (FBS, Life Technologies). […] Secreted alkaline phosphatase (SEAP) and β-galactosidase activities were measured using Phospha-Light and Galacto-Star systems (Tropix Inc., Bedford, Mass.), respectively.

[2] = tested on: AFXζ-induced PEPCK p-SEAP activity; experiment: PEPCK p-SEAP reporter assay in HepG2 cells transfected with AFXζ
Description: as §1
FIG. 5. Effect of bpV (peroxovanadate) and PKB on the transcriptional activity of AFXζ. A. HepG2 cells were transiently transfected with PEPCK p-SEAP and pcDNA6/His-AFXζ. Twenty-four hours after transfection, cells were treated with bpV at the indicated concentration in fresh media and were incubated for another 15-18 hours. The relative activation level was standardized by comparison to the reporter activity from transfection without bpV treatment. B. HepG2 cells were transiently cotransfected with the reporter constructs and pcDNA6/His-AFXζ with (filled bars) or without (open bars) the plasmid encoding myr-Akt1, which constitutively expresses active PKB. Forty-eight hours after transfection, SEAP and β-galactosidase activities were measured. The relative activation levels were standardized comparing with the activity from corresponding transfection with reporter alone. All values represent the means±S.D. of 3 independent experiments.
as §2
as §3, with “pSEAP2-promoter. In addition, a 501 bp fragment corresponding to the human PEPCK 5′ regulatory sequence (−458 to +43 relative to the transcription start site, abbreviated as PEPCK p) was cloned into the Bgl II/EcoR I site of the same vector.” for “pSEAP2-promoter.”

HepG2 cells = tested on: HepG2 cells
Description: The human hepatoma cell line HepG2 was cultured in Dulbecco's Modified Eagle's Medium (DMEM) with 10% Fetal Bovine Serum (FBS, Life Technologies). Transient transfection experiments were performed in DMEM supplemented with 10% dialyzed FBS in 24-well plates. A DNA construct (0.2 μg unless otherwise specified) corresponding to IRS-SEAP, pcDNA6/His-AFXα or -AFXζ and CMV-β was added. Each set of reporter assay includes a transfection in which no AFX expression construct was added. In experiments where PKB effect was tested, 0.2 μg myr-Aktl in pUSEamp(+) (Upstate Biotechnology, Lake Placid, N.Y.), which constitutively expresses activated PKB, was included. Lipofectamine 2000 reagent (Life Technologies) was used for DNA transfection following the manufacturer's instruction. For experiment in which the cells were treated with soluble agents, the medium was changed 24 hours after the transfection. Cells were then treated with appropriate concentrations of bpV [potassium bisperoxo(1,1 0-phenanthroline) oxovanadate(V), Alexis Biochemicals, San Diego, Calif.], porcine insulin, or AICAR (5-aminoimidazole-4-carboxamide-1-β-D-ribofuranoside, Sigma, St. Louis, Mo.) in fresh media for another 15-18 hours. Secreted alkaline phosphatase (SEAP) and β-galactosidase activities were measured using Phospha-Light and Galacto-Star systems (Tropix Inc., Bedford, Mass.), respectively.

## NC(=O)c1ncn([C@@H]2O[C@H](CO)[C@@H](O)[C@H]2O)c1N [AICAR, 5-aminoimidazole-4-carboxamide-1-β-D-ribofuranoside]
[1]; HepG2, 200 μM AICAR
  induced PEPCK IRS-SEAP activity, % of the stimulation ascribed to transfected AFXζ: 20%
[2]; HepG2, 200 μM AICAR
  transcriptional activity of AFXζ on the PEPCK promoter, % of untreated cells: 48%

## O.O.O.OO.OO.[K+].[OH-].[V].c1cnc2c(c1)ccc1cccnc12 [bpV, potassium bisperoxo(1,1 0-phenanthroline) oxovanadate(V)]
HepG2 cells
  concentration with toxicity in HepG2 cells (reduction of control galactosidase activity): above 5 μM
[2]; HepG2, 5 μM bpV
  AFXζ-induced PEPCK p-SEAP reporter activity: below the basal level
[2]; HepG2, 15-18 hours
  lowest concentration repressing AFXζ-induced PEPCK p-SEAP reporter gene activity: 0.5 µM

## insulin: porcine insulin used to treat transfected HepG2 cells
[1]; HepG2, 200 nM insulin
  AFXζ-induced PEPCK IRS-SEAP reporter activity: to the basal level
[1]; HepG2 cells in which exogenous AFXζ had not been introduced
  PEPCK IRS-SEAP activity: repressed
[2]; HepG2, increasing concentrations of insulin, 15-18 hours
  induced PEPCK p-SEAP activity compared with the untreated cells: 50%
